The values below come from US9540343B2 (Gilead Sciences, Inc., priority 2011, dated 2017).

Usually inhibition stands for the relative decrease from the control value, in per cent. The CC50 is the concentration at which the toxic effect on the cells reaches its halfway point. A high value points to lower toxicity to the cells. As a reminder, the % inhibition is the drop in the measured response relative to a control, in per cent. A lower % inhibition goes with a weak effect.

For series [1], the system named is HIV-IIIb. Description: Test A: Antiviral assay in MT4 cells. Type of series: cell-based, HIV-1. Conditions: MT-4 cells infected with HIV-IIIb, 5 days, CellTiter-Glo; for inhibition at 2 µM: Human immunodeficiency virus 1, IIIB, MT4, 120 h, read-out: % inhibition at 2 μM, percent inhibition of virus-induced cell killing, from dose response curve at 2 uM drug. In general terms: Cellular ATP, detected with luciferase, serves as a proxy for viable cell number.

Series [2] is described as follows: in vitro. Put shortly: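 Cytoprotection read-out: CellTiter-Glo chemiluminescence after 5 days at 37 °C of HIV-IIIb-infected MT-4 cells (m.o.i. 0.003) with compound in 10-point 3-fold dilutions, quadruplicate, 10% FBS. Cytotoxicity (CC50) measured identically without virus.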
The mark [3] stands for this setting: human, uninfected MT-4 cells, CC50 (nM), same protocol as Test A, CellTiter-Glo.
The mark [4] stands for this setting: human, CC50 (nM), uninfected MT-4 cells, same protocol as Test A, CellTiter-Glo.

Take `NC(=O)c1cc(-c2cccnc2[C@H](Cc2cc(F)cc(F)c2)NC(=O)Cn2nc(C(F)(F)F)c3c2C2CC2C3O)ccc1F` (stereo partly drawn) [Example 457, 5-(2-((1S)-2-(3,5-difluorophenyl)-1-(2-(4-hydroxy-3-(trifluoromethyl)-4,4-a,5,5a-tetrahydro-1H-cyclopropa[4,5]cyclopenta[1,2-c]pyrazol-1-yl)acetamido)ethyl)pyridin-3-yl)-2-fluorobenzamide]: the inhibition at 2 µM in series [1] was 64%. In series [2] (setting [3]), this compound came in with a CC50 at 5 days above 53200 nM.
For the compound `CC(=O)c1c(C)n(CC(=O)N[C@@H](Cc2cc(F)cc(F)c2)c2ncccc2-c2ccc(Cl)cc2)c2ccccc12` [Example 486, (S)-2-(3-acetyl-2-methyl-1H-indol-1-yl)-N-(1-(3-(4-chlorophenyl)pyridin-2-yl)-2-(3,5-difluorophenyl)ethyl)acetamide], the inhibition at 2 µM in series [1] came out at 76%. In series [2] (setting [4]), the midpoint of cytotoxicity, the CC50 at 5 days, lay at 7080 nM.
With `NC(=O)c1cc(-c2cccnc2[C@H](Cc2cc(F)cc(F)c2)NC(=O)Cn2nc(C(F)(F)F)c3c2C(=O)CC3)ccc1F` [Example 281C, (S)-5-(2-(2-(3,5-difluorophenyl)-1-(2-(6-oxo-3-(trifluoromethyl)-5,6-dihydrocyclopenta[c]pyrazol-1(4H)-yl)acetamido)ethyl)pyridin-3-yl)-2-fluorobenzamide], the inhibition at 2 µM in series [1] amounted to 5%. Moreover, the CC50 at 5 days in series [2] (setting [3]) is 28300 nM.
Taken in the same sequence, the figures for `O=C(Cn1nc(C(F)F)c2c1C(F)(F)C1CC21)N[C@@H](Cc1cc(F)cc(F)c1)c1ncccc1-c1ccc2[nH]ncc2c1` (stereo partly drawn) [Example 421, (S)—N-(1-(3-(indozol-5-yl)-pyridin-2-yl)-2-(3,5-difluorophenyl)ethyl)-2-(3-(difluoromethyl)-5,6-dihydro-4,5-(methano)-6,6-difluoro-cyclopenta[c]pyrazol-1(4H)-yl)acetamide] were 70% and 10200 nM.
In the case of `CC(C)(C)OC(=O)N1CCc2c(C(F)(F)F)nn(CC(=O)N[C@@H](Cc3cc(F)cc(F)c3)c3ncccc3-c3ccc(F)c(C(N)=O)c3)c2C1` [Example 378, (S)-tert-butyl 1-(2-(1-(3-(3-carbamoyl-4-fluorophenyl)pyridin-2-yl)-2-(3,5-difluorophenyl)ethylamino)-2-oxoethyl)-3-(trifluoromethyl)-4,5-dihydro-1H-pyrazolo[3,4-c]pyridine-6(7H)-carboxylate], the inhibition at 2 µM in series [1] stood at 5%. In addition, the CC50 at 5 days in series [2] (setting [3]) is 17100 nM.
Taken in the same sequence, the figures for `NC(=O)c1cc(-c2cccnc2[C@H](Cc2cc(F)cc(F)c2)NC(=O)Cn2nc(C(F)(F)F)c3c2CS(=O)(=O)C3)ccc1F` [Example 194, (S)-5-(2-(2-(3,5-difluorophenyl)-1-(2-(5,5-dioxido-3-(trifluoromethyl)-4,6-dihydro-1H-thieno[3,4-c]pyrazol-1-yl)acetamido)ethyl)pyridin-3-yl)-2-fluorobenzamide] were 11% and above 53200 nM.
Taken in the same sequence, the figures for `O=C(Cc1c[nH]c2ccc(F)cc12)N[C@@H](Cc1cc(F)cc(F)c1)c1ncccc1-c1cnc2ccccc2c1` [Example 111, (S)—N-(2-(3,5-difluorophenyl)-1-(3-(quinolin-3-yl)pyridin-2-yl)ethyl)-2-(5-fluoro-1H-indol-3-yl)acetamide] were 41% and 9950 nM.
As for `COc1ccc2cccc(CC(=O)N[C@@H](Cc3cc(F)cc(F)c3)c3ncccc3-c3ccc(F)c(C#N)c3)c2c1` [Example 373, (S)—N-(1-(3-(3-cyano-4-fluorophenyl)pyridin-2-yl)-2-(3,5-difluorophenyl)ethyl)-2-(7-methoxynaphthalen-1-yl)acetamide], the inhibition at 2 µM in series [1] turned out to be 0%. The same compound showed a cytotoxic concentration (CC50) at 5 days in series [2] (setting [3]) of 8140 nM.
For `NC(=O)c1cc(-c2cccnc2[C@H](Cc2cc(F)cc(F)c2)NC(=O)Cn2cc(CO)c(C(F)(F)F)n2)ccc1F` [Example 292, (S)-5-(2-(2-(3,5-difluorophenyl)-1-(2-(4-(hydroxymethyl)-3-(trifluoromethyl)-1H-pyrazol-1-yl)acetamido)ethyl)pyridin-3-yl)-2-fluorobenzamide], in that order: 1% and above 53200 nM.
Taken in the same sequence, the figures for `CN1CCc2c(c(C(F)(F)F)nn2CC(=O)N[C@@H](Cc2cc(F)cc(F)c2)c2ncccc2-c2ccc(F)c(C(N)=O)c2)C1` [Example 324, (S)-5-(2-(2-(3,5-difluorophenyl)-1-(2-(5-methyl-3-(trifluoromethyl)-4,5,6,7-tetrahydro-1H-pyrazolo[4,3-c]pyridin-1-yl)acetamido)ethyl)pyridin-3-yl)-2-fluorobenzamide] were 31% and above 53200 nM.
For `COCc1ccc(-c2cccnc2[C@H](Cc2cc(F)cc(F)c2)NC(=O)Cn2nc(C(F)F)c3c2C(F)(F)C2CC32)cc1` (stereo partly drawn) [Example 195, 2-(3-(difluoromethyl)-5,5-difluoro-3b,4,4a,5-tetrahydro-1H-cyclopropa[3,4]cyclopenta[1,2-c]pyrazol-1-yl)-N—((S)-2-(3,5-difluorophenyl)-1-(3-(4-(methoxymethyl)phenyl)pyridin-2-yl)ethyl)acetamide], in that order: 85% and 23000 nM.
For the compound `CC(C)(C)OC(=O)N1[C@@H](C(=O)N[C@@H](Cc2cc(F)cc(F)c2)c2ncccc2-c2ccc(F)c(C(N)=O)c2)CC[C@H]1c1ccccc1` [Example 158, (2R,5S)-tert-butyl 2-((S)-1-(3-(3-carbamoyl-4-fluorophenyl)pyridin-2-yl)-2-(3,5-difluorophenyl)ethylcarbamoyl)-5-phenylpyrrolidine-1-carboxylate], in series [1], the inhibition at 2 µM was 0%. The CC50 at 5 days in series [2] (setting [3]) worked out at 8500 nM.
Taken in the same sequence, the figures for `N#Cc1cn(CC(=O)N[C@@H](Cc2cc(F)cc(F)c2)c2ncccc2-c2ccc(F)c(C(N)=O)c2)nc1C(F)(F)F` [Example 363, (S)-5-(2-(1-(2-(4-cyano-3-(trifluoromethyl)-1H-pyrazol-1-yl)acetamido)-2-(3,5-difluorophenyl)ethyl)pyridin-3-yl)-2-fluorobenzamide] were 2% and 21900 nM.
For `Cc1cc2ncn(CC(=O)NC(Cc3cc(F)cc(F)c3)c3nccnc3-c3ccc(Cl)cc3)c2cc1C` (centres unmarked) [Example 475, N-(1-(3-(4-chlorophenyl)pyrazin-2-yl)-2-(3,5-difluorophenyl)ethyl)-2-(5,6-dimethyl-1H-benzo[d]imidazol-1-yl)acetamide], in that order: 23% and 20400 nM.
Taken in the same sequence, the figures for `Cc1ccccc1-c1cccnc1[C@H](Cc1ccccc1)NC(=O)Cc1c[nH]c2ccc(O)cc12` [Example 14, (S)-2-(5-hydroxy-1H-indol-3-yl)-N-(2-phenyl-1-(3-o-tolylpyridin-2-yl)ethyl)acetamide] were 76% and 25400 nM.
Turning to `CC(=O)c1cn(CC(=O)N[C@@H](Cc2cc(F)cc(F)c2)c2ncccc2-c2ccc(F)c(C(N)=O)c2)nc1C(F)(F)F` [Example 389B, (S)-5-(2-(1-(2-(4-acetyl-3-(trifluoromethyl)-1H-pyrazol-1-yl)acetamido)-2-(3,5-difluorophenyl)ethyl)pyridin-3-yl)-2-fluorobenzamide], the inhibition at 2 µM in series [1] was determined as 2%. This compound also yielded a 50% cytotoxic concentration (CC50) at 5 days in series [2] (setting [3]) above 53200 nM.
Taken in the same sequence, the figures for `O=C(Cn1nc(C(F)F)c2c1C1CC1CC2)NC(Cc1cc(F)cc(F)c1)c1ncncc1-c1cnc2[nH]ccc2c1` (centres unmarked) [Example 299D, N-(1-(5-(1H-pyrrolo[2,3-b]pyridin-5-yl)pyrimidin-4-yl)-2-(3,5-difluorophenyl)ethyl)-2-(3-(difluoromethyl)-5,5a,6,6a-tetrahydrocyclopropa[g]indazol-1(4H)-yl)acetamide] were 100% and 19500 nM.
For `NC(=O)c1cc(-c2cccnc2[C@H](Cc2cc(F)cc(F)c2)NC(=O)Cc2c[nH]c3ccc(O)cc23)ccc1Cl` [Example 40, (S)-2-chloro-5-(2-(2-(3,5-difluorophenyl)-1-(2-(5-hydroxy-1H-indol-3-yl)acetamido)ethyl)pyridin-3-yl)benzamide], in that order: 99% and above 48900 nM.
Taken in the same sequence, the figures for `NC(=O)c1cc(-c2cccnc2[C@H](Cc2cc(F)cc(F)c2)NC(=O)CC2C(=O)Nc3ccc(F)cc32)ccc1F` (stereo partly drawn) [Example 267, 5-(2-((1S)-2-(3,5-difluorophenyl)-1-(2-(5-fluoro-2-oxoindolin-3-yl)acetamido)ethyl)pyridin-3-yl)-2-fluorobenzamide] were 5% and above 52900 nM.
As for `CC(C)(C)c1cc(C(F)(F)F)nn1CC(=O)N[C@@H](Cc1cc(F)cc(F)c1)c1ncccc1-c1ccc(F)c(C(N)=O)c1` [Example 244B, (S)-5-(2-(1-(2-(5-(tert-butyl)-3-(trifluoromethyl)-1H-pyrazol-1-yl)acetamido)-2-(3,5-difluorophenyl)ethyl)pyridin-3-yl)-2-fluorobenzamide], the inhibition at 2 µM in series [1] turned out to be 0%. The compound also had a half-maximal cytotoxic concentration (CC50) at 5 days in series [2] (setting [3]) of 16400 nM.
As to `CCC(C(=O)N[C@@H](Cc1cc(F)cc(F)c1)c1ncccc1-c1ccc(F)c(C(N)=O)c1)n1cc(C(C)=O)c2ccccc21` (stereo partly drawn) [Example 543, 5-(2-((1S)-1-(2-(3-acetyl-1H-indol-1-yl)butanamido)-2-(3,5-difluorophenyl)ethyl)pyridin-3-yl)-2-fluorobenzamide], the “% inhibition at 2 μM” value in series [1] (percent inhibition of virus-induced cell killing, from dose response curve at 2 uM drug) is 4%. It took 44000 nM to reach half-maximal cytotoxicity in series [2] (setting [4]) (CC50 at 5 days).
Consider `O=C(Cc1c[nH]c2ccc(O)nc12)N[C@@H](Cc1cc(F)cc(F)c1)c1nccnc1-c1ccc(Cl)cc1` (stereo in doubt) [Example 476, N-(1-(3-(4-chlorophenyl)pyrazin-2-yl)-2-(3,5-difluorophenyl)ethyl)-2-(5-hydroxy-1H-pyrrolo[3,2-b]pyridin-3-yl)acetamide], for which the inhibition at 2 µM in series [1] is 30%. In series [2] (setting [3]), this compound came in with a 50% cytotoxic concentration (CC50) at 5 days of 53200 nM.
